Data: patent publication US7335654B2, “Phosphodiesterase 4 inhibitors” (Memory Pharmaceuticals Corporation, priority 2002, dated 2008)

Legend:
[1] = system: rat (Male Spraque-Dawley (Harlan)); experiment: Passive avoidance in rats, in vivo test for learning and memory; details: retention test 24 hours after electric shock; MK-801 0.1 mg/kg pretreatment compared to the vehicle (p<0.001)
Method: The test was performed as previously described (Zhang, H.-T., Crissman, A. M., Dorairaj, N. R., Chandler, L. J., and O'Donnell, J. M., Neuropsychopharmacology, 2000, 23, 198-204.). The apparatus (Model E10-16SC, Coulbourn Instruments, Allentown, Pa.) consisted of a two-compartment chamber with an illuminated compartment connected to a darkened compartment by a guillotine door. The floor of the darkened compartment consisted of stainless steel rods through which an electric foot-shock could be delivered from a constant current source. All experimental groups were first habituated to the apparatus the day before the start of the experiment. During the training, the rat (Male Spraque-Dawley (Harlan) weighing 250 to 350 g) was placed in the illuminated compartment facing away from the closed guillotine door for 1 minute before the door was raised. The latency for entering the darkened compartment was recorded. After the rat entered the darkened compartment, the door was closed and a 0.5 mA electric shock was administered for 3 seconds. […] The latency for entering the darkened compartment was recorded for up to 180 seconds, at which time the trial was terminated.
(§1) All data were analyzed by analyses of variance (ANOVA); individual comparisons were made using Kewman-Keuls tests. […]

[2] = system: rats (male Spraque-Dawley (Harlan)); experiment: Radial arm maze task in rats, in vivo test for learning and memory; set-up: species or system rat; details: MK-801 0.1 mg/kg, i.p., compared to control (p<0.01)
Method: The test was performed as previously described (Zhang, H.-T., Crissman, A. M., Dorairaj, N. R., Chandler, L. J., and O'Donnell, J. M., Neuropsychopharmacology, 2000, 23, 198-204.). Five days after initial housing, rats (male Spraque-Dawley (Harlan) weighing 250 to 350 g) were placed in the eight-arm radial maze (each arm was 60×10×12 cm high; the maze was elevated 70 cm above the floor) for acclimation for two days. Rats were then placed individually in the center of the maze for 5 minutes with food pellets placed close to the food wells, and then, the next day, in the wells at the end of the arms; 2 sessions a day were conducted. Next, four randomly selected arms were then baited with one pellet of food each. The rat was restricted to the center platform (26 cm in diameter) for 15 seconds and then allowed to move freely throughout the maze until it collected all pellets of food or 10 minutes passed, whichever came first. Four parameters were recorded: 1) working memory errors, i.e., entries into baited arms that had already been visited during the same trial; 2) reference memory errors, i.e., entries into unbaited arms; 3) total arm entries; and 4) the test duration (seconds), i.e., the time spent in the collection of all the pellets in the maze. […]
as §1

`C[C@]12N[C@H](Cc3ccccc31)c1ccccc12` [MK-801] was tested, and the “latency for entering the darkened compartment” value [1] was “markedly reduced”, the “frequency of reference memory errors” value [2] was “increased” and the “frequency of working memory errors” value [2] was “increased”.
